This is an account of results in patent US12173042B2, “Methods of treating cancers with CT45 targeted therapies” (The University of Chicago, priority 2016, dated 2024).

One test deals with 59M cells. Nature of the test: Colony assay of carboplatin treated 59M cells with siRNA. It is filed as cell-based, human. The following applies: cells deficient in PP4 or expressing CT45. The source says: FIG. 23. Cell deficient in PP4 or expressing the endogenous PP4 inhibitor CT45 are hypersensitive to carboplatin treatment. Shown are colony assay results of carboplatin treated 59M cells transfected with a control siRNA, PP4C siRNA or CT45 siRNA. Colony numbers are normalized to untreated cells of each siRNA.

A further test has as its system OVCAR5-V5-CT45 tumors. Nature of the test: Subcutaneous tumor growth in nude mice, CT45 expressing tumors. It is filed as in vivo, athymic nude mice. As to conditions: carboplatin 20 mg/kg tail vein 1 time/week, vs untreated CT45 tumors. Here is the method: (§1) 5 million OVCAR5-V5 or OVCAR5-V5-CT45 cells suspended in a 1:2 solution of serum-free media to growth-factor reduced matrigel were injected subcutaneously into the right and left flanks respectively, of 8 week old female athymic nude mice. After 5 days, treatment was administered through the tail vein 1 time/week at 20 mg/kg. Sterile water served as the control treatment. Tumor growth was measured every 2-3 days using calipers until the tumor neared 1 cm3 and was measured daily. Once the tumor reached 1 cm3 the mouse was sacrificed. 4 mice were removed from the study early due to ulcerations of the skin. All experiments were approved by the Institutional Animal Care and Use Committee of the University of Chicago.
as §1, with “Five million” for “5 million”, “8 weeks” for “8 week”, “1 cm^3” for “1 cm3”, “skin. […]” for “skin. All experiments were approved by the Institutional Animal Care and Use Committee of the University of Chicago.”

The subject of test [1] is DNA damage in CT45-expressing cells. Nature of the test: Comet assay. The following applies: day 5. It is filed as cell-based, human. Here is the method:
Cells were treated with carboplatin for 3 days and then incubated an additional 2 days without drug. The comet assay was performed on day 5 as previously described39. Briefly, 2.5e4 cells/condition were resuspended in 70 uL 0.5% low melting point agarose (LMPA) at 37 C and plated on a glass slide precoated with 1% agarose in PBS. Samples were allowed to solidify at 4 C for 20 minutes with a square cover glass. The cover class was gently removed and a second 70 uL layer of 0.5% LMPA was applied and again allowed to solidify. The cover glass was removed and the slides immersed in Comet Lysis solution (2.5M NaCl, 100 mM EDTA, 10 mM Tris, 0.015% Triton X-100, pH 10) for one hour at 4 C and from this point forward protected from light. After lysis, the slides were equilibrated for 20 minutes in Comet Electrophoresis Buffer (0.3N NaOH, 1 mM EDTA, […]) at 4 C, and then run at 25V for 20 minutes. […] At least 100 cells were quantified/sample using the software OpenComet40. […]
Cells were treated with carboplatin for 3 days and then incubated an additional 2 days without drug. […] At least 100 cells were quantified/sample using the software OpenComet. […]

Entries after “also recorded” stand apart in the source; their conditions may differ.

With `N.N.O=C([O-])C1(C(=O)[O-])CCC1.[Pt+2]` [carboplatin], the “sensitivity of colony formation to carboplatin” value in the test with 59M cells is given as “hypersensitive”. In addition, the tumor growth result in the test on OVCAR5-V5-CT45 tumors was “significantly reduced growth”. The “DNA damage (tail moment)” value in test [1] is recorded as “higher levels of DNA damage; also recorded: more DNA damage”.
